From article PMC9457736, “Dual Inhibition of HIV-1 and Cathepsin L Proteases by Sarcandra glabra” (Molecules, 2022)
Like-named read-outs stand apart in the source and are kept apart here.

What was measured:
[1] = target: T1, human recombinant Cathepsin L protease (Homo sapiens, UniProt P07711); experiment: FRET assay of Cathepsin L protease inhibition (SensoLyte 520 kit); assay type: biochemical; conditions: for inhibition at 10 µg/mL: read-out: CatL PR Inhibition (%) ± SD at 0.01 (mg/mL)
T1 construct: purchased AnaSpec Inc. SensoLyte 520 Cathepsin L Protease Assay Kit, Lot#: AS72218-1010
Description: (§1) Enzyme activities of HIV-1, Cathepsin L, and renin proteases were determined by a FRET assay, following the manufacturer’s protocol. Briefly, the HIV-1 PR activity was assayed using 384-well microplates with a well volume of 120 μL (Corning Incorporated, Corning, NY, USA). Then, 8 μL of recombinant HIV-1 protease (wild type, NCBI accessiob: NC-001802, final concentration: 0.01 mg/mL (80 ng/well), AnaSpec Inc., Fremont, San Jose, CA, USA) was mixed with 2 μL of the test compounds (0.01~1.0 mg/mL). Reactions were then initiated by adding 10 μL of the HIV protease substrate (50X dilution with assay buffer). Fluorescence was measured using a EX/Em = 490/520 nm filter module on a Synergy II microplate reader. To evaluate the inhibitory activity of the test compounds towards Cathepsin L protease, fluorimetric SensoLyte^TM 520 Cathepsin L Protease Assay Kit (Lot#: AS72218-1010, AnaSpec Inc. San Jose, CA, USA) was used. Briefly, 2 μL test compound solutions (0.01~1.0 mg/mL) and 8 µL of human recombinant Cathepsin L protease (200× dilution with DTT-containing assay buffer, final concentration: 0.5 µg/mL) were added in the microplate wells. The microplate was pre-incubated at room temperature for 10 min. The enzymatic reaction was subsequently initiated by adding 10 μL of freshly diluted Cathepsin L substrate solution (100× dilution with assay buffer, final concentration: 0.01 mM) into each well. The microplate was gently shaken for 30 s before being incubated at 37 °C for 30 min. Fluorescence was measured at an emission of 520 nm and excitation of 490 nm. A Cathepsin L inhibitor, (100× dilution with assay buffer, final concentration: 1 µM) was used as a positive control. IC50 values of tested compounds were calculated by Microsoft Office Excel software using three different concentrations.

[2] = target: T2, recombinant HIV-1 protease (wild type) (Human immunodeficiency virus type 1 group M subtype B, UniProt P04585); experiment: FRET assay of HIV-1 protease inhibition; assay type: biochemical; conditions: for inhibition at 1000 µg/mL / HIV-1 PR Inhibition (%) ± SD at 1.0 (mg/mL): 1.0 mg/mL; for inhibition at 1000 µg/mL / HIV-1 PR Inhibition (%) ± SD at 1.0 (mg/mL) / IC50 ± RSD% HIV-1 PR: n = 3; for inhibition at 1000 µg/mL: read-out: HIV-1 PR Inhibition (%) ± SD at 1.0 (mg/mL)
T2 construct: 8 μL of recombinant HIV-1 protease (wild type); purchased AnaSpec Inc
Description: as §1, with “Then, 8 μL of recombinant HIV-1 protease (wild type, NCBI accessiob: NC-001802, final concentration: 0.01 mg/mL (80 ng/well), AnaSpec Inc., Fremont, San Jose, CA, USA) was mixed with 2 μL of the test compounds (0.01~1.0 mg/mL).” left out, “To evaluate the inhibitory activity of the test compounds towards Cathepsin L protease, fluorimetric SensoLyte^TM 520 Cathepsin L Protease Assay Kit (Lot#: AS72218-1010, AnaSpec Inc. San Jose, CA, USA) was used.” left out

T1 sequence (P07711 114-333): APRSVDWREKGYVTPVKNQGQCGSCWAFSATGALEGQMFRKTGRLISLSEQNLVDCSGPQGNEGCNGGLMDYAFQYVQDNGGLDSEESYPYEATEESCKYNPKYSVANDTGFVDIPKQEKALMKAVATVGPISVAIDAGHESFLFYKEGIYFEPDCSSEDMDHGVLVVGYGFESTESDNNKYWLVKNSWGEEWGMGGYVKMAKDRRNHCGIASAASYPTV

Compound | inhibition at 10 µg/mL ([1]; 0.01 mg/mL, n = 3) [%] | inhibition at 1000 µg/mL [2] [%] | inhibition of CatL PR (in words) [1] | inhibition at 10 µg/mL [1] [%] | IC50 [2] [µM] | HIV-1 PR Inhibition (%) ± SD at 1.0 (mg/mL) [2] [%] | IC50 ± RSD% HIV-1 PR [2] [%] | HIV-1 PR Inhibition (%) ± SD at 1.0 (mg/mL) ([2]; listed as 3,4-dicaffeoylquinic acid)
C[N+](C)(C)CC(=O)O [Compound 1, Betaine] | -15.5 ± 5.76 | 8.95 ± 4.61 | – | – | – | – | – | –
O=C(O)[C@]1(O)C[C@@H](O)[C@@H](O)[C@H](O)C1 [Compound 2, D-(-)-Quinic acid] | – | -20.1 ± 2.61 | no inhibition | -0.32 ± 8.61 | – | – | – | –
COc1ccc(C(C)=O)c(O)c1 [Compound 3, Paeonol] | -15 ± 0.56 | -12.6 ± 0.26 | – | – | – | – | – | –
O=C(O)c1ccc(O)c(O)c1 [Compound 4, Protocatechuic acid] | – | 47.9 ± 1.82 | – | 42.1 ± 2.25 | – | – | – | –
O=C(/C=C/c1ccc(O)c(O)c1)O[C@@H]1C[C@](O)(C(=O)O)C[C@@H](O)[C@H]1O [Compound 5, Chlorogenic acid] | 40.8 ± 2.54 | – | – | – | – | – | – | –
O=c1ccc2ccc(O)cc2o1 [Compound 6, 7-Hydroxycoumarine] | 22.6 ± 0.53 | 28.9 ± 4.41 | – | – | – | – | – | –
O=C(O)/C=C/c1ccc(O)c(O)c1 [Compound 7, Caffeic acid] | 32.1 ± 1.68 | > 50 | – | – | 2660 | 65.9 ± 0.00 | 0.48 ± 0.124 | –
COc1cc2ccc(=O)oc2c(O)c1O [Compound 8, Fraxetin] | 15 ± 5.25 | 24.1 ± 6.7 | – | – | – | – | – | –
C[C@@H]1O[C@@H](O[C@H]2C(=O)c3c(O)cc(O)cc3O[C@@H]2c2ccc(O)c(O)c2)[C@H](O)[C@H](O)[C@H]1O [Compound 9, Astilbin] | -24.7 ± 8.14 | > 50 | – | – | – | 68.4 ± 5.45 | 0.54 ± 4.34 | –
COc1cc2ccc(=O)oc2c(OC)c1O [Compound 10, Isofraxidin] | 27 ± 2.37 | -2.09 ± 8.57 | – | – | – | – | – | –
O=C(C=Cc1ccc(O)c(O)c1)OC1CC(O)(C(=O)O)CC(O)C1OC(=O)C=Cc1ccc(O)c(O)c1 (stereo not shown) [Compound 11, 3,4-Dicaffeoylquinic acid] | -31.3 ± 6.24 | – | no inhibition | – | 252 | 86.1 ± 3.92 | 0.13 ± 2.84 | more than 50%
O=C(/C=C/c1ccc(O)c(O)c1)O[C@H](Cc1ccc(O)c(O)c1)C(=O)O [Compound 12, Rosmarinic acid] | 19.2 ± 1.7 | – | – | – | – | – | – | –
COc1cc(O)cc2c1C(=O)C[C@@H](c1ccccc1)O2 [Compound 13, Alpinetin] | 11.9 ± 8.99 | > 50 | – | – | – | 62.3 ± 0.96 | 0.62 ± 3.44 | –
C[C@@H]1CC[C@H]2[C@@H](C)C(=O)O[C@@H]3O[C@@]4(C)CC[C@@H]1[C@]32OO4 [Compound 14, Artemisinin] | -1.1 ± 0.52 | > 50 | – | – | – | 50.8 ± 0.58 | 0.95 ± 2.77 | –
